Results reported in patent publication US7026339B2, “Inhibitors of HCV NS5B polymerase” (priority 2003, dated 2006).

test system: HuH-7 replicon cells 5–15 and 9–13 (HCV replication); experiment: Inhibition of viral replication in HuH-7 replicon cells (HCV RNA / GAPDH RNA by multiplex RT-PCR); type: cell-based; conditions: Hepatitis C virus, 72 h; inhibiting 50% of replication; HuH-7 replicon cells, 3 days; read-out: IC50
Summary of the method: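 HCV and GAPDH RNA were measured by multiplex TaqMan RT-PCR (HCV 5′ untranslated region) after 3-day compound treatment at 37 °C, final 100 μM–1 μM in 1% DMSO. Cells were plated 24 h beforehand at 7×10^3/well. Read-out: HCV-to-GAPDH ratio expressed as percent control versus untreated cells.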

COc1cccc(CC(=O)N/N=C/c2ccccc2OS(=O)(=O)c2ccc(-c3cc(C(F)(F)F)n(C)n3)s2)c1 [Compound 226, 2-((E)-{2-[2-(3-methoxyphenyl)acetyl]hydrazono}methyl)-phenyl 5-[1-methyl-5-(trifluoromethyl)-1H-pyrazol-3-yl]thiophene-2-sulfonate] and COc1cccc(CC(=O)N/N=C/c2ccncc2OS(=O)(=O)c2ccc(C(F)(F)F)cc2)c1 [Compound 230, 4-((E)-{2-[2-(3-methoxyphenyl)acetyl]hydrazono}methyl)-pyridin-3-yl 4-(trifluoromethyl)benzenesulfonate] cannot be ordered by IC50: < 5 µM for the first, < 5 µM for the second.

O=C(Cc1cccc(Cl)c1)N/N=C/c1ccncc1OS(=O)(=O)c1ccc(C(F)(F)F)cc1 [Compound 227, 4-((E)-{2-[2-(3-chlorophenyl)acetyl]hydrazono}methyl)-pyridin-3-yl 4-(trifluoromethyl)benzenesulfonate] and Cc1ccc(S(=O)(=O)Oc2cnccc2/C=N/NC(=O)Cc2cccc(Cl)c2)cc1 [Compound 228, 4-((E)-{2-[2-(3-chlorophenyl)acetyl]hydrazono}methyl)-pyridin-3-yl 4-methylbenzenesulfonate] cannot be ordered by IC50: < 5 µM for the first, < 5 µM for the second.

First: COc1cccc(CC(=O)N/N=C/c2ccncc2OS(=O)(=O)c2ccc(C)cc2)c1 [Compound 229, 4-((E)-{2-[2-(3-methoxyphenyl)acetyl]hydrazono}methyl)-pyridin-3-yl 4-methylbenzenesulfonate]
Second: COc1cccc(CC(=O)N/N=C/c2ccccc2S(=O)(=O)c2ccc(C)cc2)c1 [Compound 239, 2-(3-methoxyphenyl)-N′-((1E)-{2-[(4-methylphenyl)sulfonyl]phenyl}methylene)-acetohydrazide]
The IC50 of the first is lower: < 5 µM for the first, 5 to 50 µM for the second. The first is the more potent here.

Cc1ccc(S(=O)(=O)Cc2ccccc2/C=N/NC(=O)Cc2cccc(Cl)c2)cc1 [Compound 231, 2-(3-chlorophenyl)-N′-[(1E)-(2-{[(4-methylphenyl)sulfonyl]methyl}phenyl)-methylene]acetohydrazide] and COc1cccc(CC(=O)N/N=C/c2ccccc2CS(=O)(=O)c2ccc(C)cc2)c1 [Compound 233, 2-(3-methoxyphenyl)-N′-[(1 E)-(2-{[(4-methylphenyl)sulfonyl]methyl}phenyl)-methylene]acetohydrazide] cannot be ordered by IC50: < 5 µM for the first, < 5 µM for the second.

Compared with Cc1ccc(S(=O)(=O)Cc2ccccc2/C=N/NC(=O)Cc2ccccc2)cc1 [Compound 232, N′-[(1E)-(2-{[(4-methylphenyl)sulfonyl]methyl}phenyl)-methylene]-2-phenylacetohydrazide], Cc1ccc(Oc2ccccc2/C=N/NC(=O)Cc2ccccc2)cc1 [Compound 234, N′-{(1E)-[2-(4-methylphenoxy)phenyl]methylene}-2-phenylacetohydrazide] is higher in IC50: < 5 µM for the first, > 50 µM for the second.

Cc1ccc(COc2ccccc2/C=N/NC(=O)Cc2ccccc2)cc1 [Compound 235, N′-((1E)-{2-[(4-methylbenzyl)oxy]phenyl}methylene)-2-phenylacetohydrazide] and COc1cccc(CC(=O)N/N=C/c2ccccc2OCc2ccc(C)cc2)c1 [Compound 236, 2-(3-methoxyphenyl)-N′-((1E)-{2-[(4-methylbenzyl)oxy]phenyl}methylene)-acetohydrazide] cannot be ordered by IC50: > 50 µM for the first, > 50 µM for the second.

First: CC(C)(C)c1ccc(COc2ccccc2/C=N/NC(=O)Cc2cccnc2)cc1 [Compound 237, N′-((1E)-{2-[(4-tert-butylbenzyl)oxy]phenyl}methylene)-2-pyridin-3-ylacetohydrazide]
Second: CN(c1ccccc1/C=N/NC(=O)Cc1cccnc1)S(=O)(=O)c1ccc(C(F)(F)F)cc1 [Compound 247, N-methyl-N-(2-{(E)-[(pyridin-3-ylacetyl)hydrazono]methyl}phenyl)-4-(trifluoromethyl)benzenesulfonamide]
The IC50 of the first is higher: > 50 µM for the first, < 5 µM for the second.

Compared with O=C(Cc1ccccc1)N/N=C/c1ccccc1OCc1cccc2ccccc12 [Compound 238, N′-{(1E)-[2-(1-naphthylmethoxy)phenyl]methylene}-2-phenylacetohydrazide], CN(c1ccccc1/C=N/NC(=O)Cc1ccccc1)S(=O)(=O)c1ccc(C(F)(F)F)cc1 [Compound 243, N-methyl-N-(2-{(E)-[(phenylacetyl)hydrazono]methyl}phenyl)-4-(trifluoromethyl)benzenesulfonamide] is lower in IC50: 5 to 50 µM for the first, < 5 µM for the second. The second is the more potent here.

CN(c1ccccc1/C=N/NC(=O)c1cc(Cl)ccc1Cl)S(=O)(=O)c1ccc(C(F)(F)F)cc1 [Compound 240, N-(2-{(E)-[(2,5-dichlorobenzoyl)hydrazono]methyl}phenyl)-N-methyl-4-(trifluoromethyl)benzenesulfonamide] and CN(c1ccccc1/C=N/NC(=O)Cc1cccc(Cl)c1)S(=O)(=O)c1ccc(C(F)(F)F)cc1 [Compound 244, N-[2-((E)-{[(3-chlorophenyl)acetyl]hydrazono}methyl)-phenyl]-N-methyl-4-(trifluoromethyl)benzenesulfonamide] cannot be ordered by IC50: 1 µM for the first, < 5 µM for the second.

O=C(Cc1cccc(Br)c1)N/N=C/c1ccccc1NS(=O)(=O)c1ccc(C(F)(F)F)cc1 [Compound 241, N-[2-((E)-{[(3-bromophenyl)acetyl]hydrazono}methyl)-phenyl]-4-(trifluoromethyl)benzenesulfonamide] and O=C(Cc1cccc(Cl)c1)N/N=C/c1ccccc1NS(=O)(=O)c1ccc(C(F)(F)F)cc1 [Compound 242, N-[2-((E)-{[(3-chlorophenyl)acetyl]hydrazono}methyl)-phenyl]-4-(trifluoromethyl)benzenesulfonamide] cannot be ordered by IC50: > 50 µM for the first, > 50 µM for the second.

CN(c1ccccc1/C=N/NC(=O)Cc1cccc(Br)c1)S(=O)(=O)c1ccc(C(F)(F)F)cc1 [Compound 245, N-[2-((E)-{[(3-bromophenyl)acetyl]hydrazono}methyl)-phenyl]-N-methyl-4-(trifluoromethyl)benzenesulfonamide] and CN(c1ccccc1/C=N/NC(=O)Cc1ccc2c(c1)OCO2)S(=O)(=O)c1ccc(C(F)(F)F)cc1 [Compound 248, N-(2-{(E)-[(1,3-benzodioxol-5-ylacetyl)hydrazono]methyl}phenyl)-N-methyl-4-(trifluoromethyl)benzenesulfonamide] cannot be ordered by IC50: < 5 µM for the first, < 5 µM for the second.

COc1ccc(CC(=O)N/N=C/c2ccccc2N(C)S(=O)(=O)c2ccc(C(F)(F)F)cc2)cc1OC [Compound 246, N-[2-((E)-{[(3,4-dimethoxyphenyl)acetyl]hydrazono}methyl)-phenyl]-N-methyl-4-(trifluoromethyl)benzenesuIfonamide] and CN(c1ccccc1/C=N/NC(=O)Cc1c[nH]cn1)S(=O)(=O)c1ccc(C(F)(F)F)cc1 [Compound 249, N-(2-{(E)-[(1H-imidazol-4-ylacetyl)hydrazono]methyl}phenyl)-N-methyl-4-(trifluoromethyl)benzenesulfonamide] cannot be ordered by IC50: < 5 µM for the first, < 5 µM for the second.

O=S(=O)(Cc1cccc(Cl)c1)N/N=C/c1ccccc1OS(=O)(=O)c1ccc(C(F)(F)F)cc1 [Compound 250, 2-((E)-[2-[(3-chlorobenzyl)sulfonyl]hydrazono}methyl)-phenyl 4-(trifluoromethyl)benzenesulfonate] and O=S(=O)(Cc1ccccc1)N/N=C/c1ccccc1OS(=O)(=O)c1ccc(C(F)(F)F)cc1 [Compound 251, 2-{(E)-[2-(benzylsulfonyl)hydrazono]methyl}phenyl4-(trifluoromethyl)benzenesulfonate] fall in the same range of IC50: 5 to 50 µM for the first, 5 to 50 µM for the second.

O=S(=O)(Cc1ccc(C(F)(F)F)cc1)N/N=C/c1ccccc1OS(=O)(=O)c1ccc(C(F)(F)F)cc1 [Compound 252, 2-[(E)-(2-{[4-(trifluoromethyl)benzyl]sulfonyl}hydrazono)-methyl]phenyl 4-(trifluoromethyl)benzenesulfonate] and O=S(=O)(N/N=C/c1ccccc1OS(=O)(=O)c1ccc(C(F)(F)F)cc1)c1ccccc1 [Compound 255, 2-{(E)-[2-(phenylsulfonyl)hydrazono]methyl}phenyl4-(trifluoromethyl)benzenesulfonate] fall in the same range of IC50: 5 to 50 µM for the first, 5 to 50 µM for the second.

O=C(Cc1ccc2c(c1)OCO2)NC1CC1c1ccccc1OS(=O)(=O)c1ccc(C(F)(F)F)cc1 (stereo not shown) [Compound 253, 2-(2-{[2-(1,3-benzodioxol-5-yl)acetyl]amino}cyclopropyl)phenyl 4-(trifluoromethyl)benzenesulfonate] and O=C(NCc1ccccn1)Nc1ccccc1OS(=O)(=O)c1ccc(C(F)(F)F)cc1 [Compound 254, 2-({[(pyridin-2-ylmethyl)amino]carbonyl}amino)phenyl 4-(trifluoromethyl)benzenesulfonate] cannot be ordered by IC50: > 50 µM for the first, > 50 µM for the second.

Work on O=S(=O)(N/N=C/c1ccccc1OS(=O)(=O)c1ccc(C(F)(F)F)cc1)c1cccc2ccccc12 [Compound 256, 2-{(E)-[2-(1-naphthylsulfonyl)hydrazono]methyl}phenyl4-(trifluoromethyl)benzenesulfonate] yielded an IC50 of 5 to 50 µM.
